Assay results as given in patent publication US20100286233A1, “PERIPHERAL AND NEURAL INFLAMMATORY CROSSTALK” (University of Rochester, priority 2006, published 2010).
Like-named read-outs stand apart in the source and are kept apart here.

Key:
[1] = system: avian mesenchymal limb bud cells; details: cited from earlier work
[2] = system: growth plate; details: systemic injection; cited from earlier work
[3] = system: C2C12 cell line; assay: C2C12 conversion to osteoblastic phenotype, alkaline phosphatase histochemistry; type: cell-based
Protocol: In vitro studies: The C2C12 cell line, an in vitro model of chondrocyte differentiation and maturation, was obtained from ATCC and cultured in DMEM plus 10% normal bovine serum for 4 days as previously described (Katagiri, T., et al. 1994). In addition, cells were treated with BMP-2 (300 ng/mL) or alternatively with BMP-2 plus PGE2 (10^−8M) or recombinant IL-1β (10 ng/mL) or butaprost (10^−8M) in the culture medium. At the end of the experiment, cells were fixed with 10% formalin. Alkaline phosphatase expression was evaluated using the BCIP/NBT histochemistry method (Vector Labs, Burlingame Calif.). Positively-stained cells were counted in 10 random 20× fields using an inverted Olympus CK41 microscope.

[4] = system: mice; details: cited from earlier work
[5] = system: μ-receptor; details: in vivo; cited from earlier work
[6] = molecular target: mouse recombinant DOR-1 receptor (Mus musculus, UniProt P32300); details: cited from earlier work
[7] = molecular target: δ-receptors (Homo sapiens, UniProt P41143); details: cited from earlier work
[8] = molecular target: κ-receptors (Homo sapiens, UniProt P41145); details: cited from earlier work
[9] = molecular target: μ-receptors (Homo sapiens, UniProt P35372); details: cited from earlier work
[10] = system: C57BL/6 mice; assay: Intracisternal IL-1β injection, brain stem IHC for GFAP and CGRP; type: in vivo, mouse; details: 2 ng in 2 μl into the cisterna magna, two days later
Protocol: Murine IL-1β (2 ng in 2 μl of normal saline) was injected […] in the cisterna magna of deeply anesthetized C57BL/6 mice (anesthetic: ketamine 40 mg/kg IP). Two days later, the mice were sacrificed, […] transcardially with 4% paraformaldehyde in phosphate buffered saline solution and the brain stem was harvested, frozed and cut at 18 μm thick horizontal sections which were collected on glass slides. The histology slides were then analyzed by immunohistochemistry (IHC) using antibodies raised against calcitonin gene-related peptide (CGRP; […]) and glial fibrillary acidic protein (GFAP; Dako).

[11] = MOR-1 knockout mice, disruption in exon-1

Chain of mouse recombinant DOR-1 receptor (P32300 whole entry): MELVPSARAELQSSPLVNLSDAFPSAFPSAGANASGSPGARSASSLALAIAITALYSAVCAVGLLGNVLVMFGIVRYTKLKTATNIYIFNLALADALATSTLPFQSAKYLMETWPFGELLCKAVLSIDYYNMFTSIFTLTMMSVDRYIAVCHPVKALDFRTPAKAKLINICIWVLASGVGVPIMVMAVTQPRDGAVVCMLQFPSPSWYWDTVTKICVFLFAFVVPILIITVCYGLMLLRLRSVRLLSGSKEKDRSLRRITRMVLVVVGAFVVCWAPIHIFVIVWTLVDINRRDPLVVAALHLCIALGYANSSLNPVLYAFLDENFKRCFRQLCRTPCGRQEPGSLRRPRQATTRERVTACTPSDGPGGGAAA
Chain of δ-receptors (P41143 whole entry): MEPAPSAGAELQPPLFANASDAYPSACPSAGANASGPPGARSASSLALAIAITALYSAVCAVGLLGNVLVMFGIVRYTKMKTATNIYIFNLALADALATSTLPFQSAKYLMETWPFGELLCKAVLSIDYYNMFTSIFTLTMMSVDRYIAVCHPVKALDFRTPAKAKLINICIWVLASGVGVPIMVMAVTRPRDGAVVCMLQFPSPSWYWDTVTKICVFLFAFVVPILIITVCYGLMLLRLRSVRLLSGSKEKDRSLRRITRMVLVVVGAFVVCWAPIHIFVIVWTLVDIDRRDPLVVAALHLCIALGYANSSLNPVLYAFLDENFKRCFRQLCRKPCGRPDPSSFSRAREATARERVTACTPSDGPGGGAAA
Chain of μ-receptors (P35372 whole entry): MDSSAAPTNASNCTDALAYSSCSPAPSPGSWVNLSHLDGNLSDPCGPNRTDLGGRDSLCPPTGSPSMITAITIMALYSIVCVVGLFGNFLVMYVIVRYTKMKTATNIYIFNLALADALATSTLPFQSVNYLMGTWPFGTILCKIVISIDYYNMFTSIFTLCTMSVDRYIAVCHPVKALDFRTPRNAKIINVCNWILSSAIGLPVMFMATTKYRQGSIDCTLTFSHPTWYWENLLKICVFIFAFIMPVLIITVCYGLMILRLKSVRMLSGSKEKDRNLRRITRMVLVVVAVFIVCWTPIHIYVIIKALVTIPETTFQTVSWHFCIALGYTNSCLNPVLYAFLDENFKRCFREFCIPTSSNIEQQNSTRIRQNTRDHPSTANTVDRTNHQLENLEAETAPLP
Chain of κ-receptors (P41145 whole entry): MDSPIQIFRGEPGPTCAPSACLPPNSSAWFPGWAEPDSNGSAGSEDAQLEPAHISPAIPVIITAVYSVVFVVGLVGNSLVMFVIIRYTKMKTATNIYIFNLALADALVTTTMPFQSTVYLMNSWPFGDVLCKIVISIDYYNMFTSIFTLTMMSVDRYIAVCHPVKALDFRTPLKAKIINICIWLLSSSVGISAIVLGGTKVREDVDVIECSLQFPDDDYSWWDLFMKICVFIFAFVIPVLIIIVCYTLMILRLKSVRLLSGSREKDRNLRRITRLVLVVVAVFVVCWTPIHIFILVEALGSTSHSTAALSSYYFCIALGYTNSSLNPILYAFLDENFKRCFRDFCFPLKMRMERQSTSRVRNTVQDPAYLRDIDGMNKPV

For CCCCC[C@H](O)/C=C/[C@H]1[C@H](O)CC(=O)[C@@H]1C/C=C\CCCC(=O)O [PGE2, prostaglandin E2], which chondrogenesis [1] is on record?
The chondrogenesis was “enhances chondrogenesis”.

And the chondrogenesis ([1]; in the presence of indomethacin)?
Its chondrogenesis is “stimulates chondrogenesis”.

And the “growth plate and limb growth” value [2]?
Its value is “thinner growth plate with decreased size of hypertrophic chondrocytes and reduced limb growth”.

And the “increase in the number of cells expressing alkaline phosphatase” value ([3]; BMP-2 plus PGE2 (10^-8M), 4 days, versus BMP-2)?
Its value is “approximately 5 fold”.

And the “conversion of differentiating C2C12 cells to an osteoblastic phenotype” value ([3]; under the stimulus of BMP-2)?
The value was “acceleration of their conversion to an osteoblastic phenotype”.

Which antinociception [4, 11] does the source give for CC(=O)Oc1ccc2c3c1O[C@H]1[C@@H](OC(C)=O)C=C[C@H]4[C@@H](C2)N(C)CC[C@@]341 [heroin] here?
Its antinociception is “still produce antinociception”.

And the antinociception ([4]; mice of the CXBX strain)?
The antinociception was “potently antinociceptive”.

With COc1ccc2c(c1)c(CC(=O)O)c(C)n2C(=O)c1ccc(Cl)cc1 [indomethacin] as the molecule, how does the chondrogenesis [1] read?
The chondrogenesis was “inhibit chondrogenesis”.

With CN1CC[C@]23c4c5ccc(O)c4O[C@H]2[C@@H](O[C@@H]2O[C@H](C(=O)O)[C@@H](O)[C@H](O)[C@H]2O)C=C[C@H]3[C@H]1C5 [morphine-6b-glucuronide] as the molecule, how does the antinociception [4, 11] read?
The antinociception was “still produce antinociception”.

And the antinociception ([4]; mice of the CXBX strain)?
The antinociception was “potently antinociceptive”.

For CN1CC[C@]23c4c5ccc(O)c4O[C@H]2[C@@H](O)C=C[C@H]3[C@H]1C5 [morphine], which antinociception [4, 11] is on record?
Its antinociception is “not”.

What about the antinociception ([4]; mice of the CXBX strain) of the same molecule?
The antinociception was “poor antinociceptive agent”.

Which “induction of morphine dependence” value [5] does the source give for C=CCN1CC[C@]23c4c5ccc(O)c4O[C@H]2/C(=N\N)CC[C@@]3(O)[C@H]1C5 [naloxazone] here?
Its value is “did not block”.

And the morphine-induced antinociception [5]?
Its morphine-induced antinociception is “selectively blocked”.

What about the morphine-induced respiratory depression [5] of the same molecule?
Its morphine-induced respiratory depression is “did not block”.

With Oc1ccc2c3c1O[C@H]1c4oc5ccccc5c4C[C@@]4(O)[C@@H](C2)N(CC2CC2)CC[C@]314 [naltriben, Naltriben] as the molecule, how does the “displacement of [3H]-diprenorphine binding” value [6] read?
The value was “more highly displaced by naltriben than BNTX”.

Which “affinity for δ-receptors” value [7] does the source give for “β-endorphin: endogenous opioid peptide from pro-opiomelanocortin, SEQ ID NO: 129” here?
The value was “equiactive at μ- and δ-receptors”.

What about the “affinity for κ-receptors” value [8] of the same molecule?
Its value is “much lower affinity”.

And the “affinity for μ-receptors” value [9]?
Its value is “equiactive at μ- and δ-receptors”.

B1: IL-1β: murine interleukin-1β cytokine injected into the cisterna magna (protein, UniProt P10749 118-269, looked up)
Interleukin-1 beta: VPIRQLHYRLRDEQQKSLVLSDPYELKALHLNGQNINQQVIFSMSFVQGEPSNDKIPVALGLKGKNLYLSCVMKDGTPTLQLESVDPKQYPKKKMEKRFVFNKIEVKSKVEFESAEFPNWYISTSQAEHKPVFLGNNSGQDIIDFTMESVSS
Which “expression of CGRP in the descending trigeminal nucleus (medullary dorsal horn)” value [10] does the source give for B1 here?
The value was “induced”.

What about the “expression of GFAP in the descending trigeminal nucleus (medullary dorsal horn)” value [10] of the same molecule?
Its value is “induced”.
